From patent US20230293560A1, “METHOD FOR MODULATING THE BLADDER MICROBIOME TO IMPROVE BLADDER HEALTH” (Kimberly-Clark Worldwide, Inc., priority 2020, published 2023) come the findings set out here.

Structures are written as SMILES.

The subject of assay [1] is commensal and pathogenic bacterial species. The assay is described as follows: Prebiotic screening, summary in words across species. The assay is classed as cell-based. To be noted: commensal (L. crispatus, L. gasseri, L. jensenii) and pathogenic (S. anginosus, E. faecalis) species. In a few lines: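 Prebiotics at 2% w/v stock in API 50 CHL medium with bromocresol purple, inoculated with bacteria and read every 20 min for 24-48 h at OD430/590 (fermentation) and OD660 (growth), scored against a glucose control. Some tested on MRS-based agar with the prebiotic in place of glucose; competition assay with L. crispatus and S. anginosus incubated 48 h anaerobically at 37 °C, then enumerated on MRS and TSA.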

A further assay deals with L. crispatus. The assay is described as follows: High throughput assay screening of prebiotics. Format: cell-based, Lactobacillus crispatus. Details: key: ++: if growth and fermentation was equal to or greater than the positive control; +: if growth and fermentation was less than the positive control; +: if weak or no growth or fermentation; +^2: Bacteria demonstrated growth but no fermentation on the prebiotic. The note with it: 2% w/v prebiotic in API 50 CHL media; for growth and fermentation vs positive control, Lc-4: L. crispatus KC18-1174-1, Vagina. In a few lines:
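Prebiotic or glucose/dextrose positive control in API 50 CHL minimal-carbon medium with bromocresol purple, inoculated with bacterial suspension (0.5 McFarland streptococci/enterococci, 1 McFarland lactobacilli). Read every 20 min for 24-48 h; OD430 rise/OD590 fall marks fermentation, OD660 rise marks growth, scored versus positive control.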

In another assay the test system is L. jensenii. The assay can be described thus: High throughput assay screening of prebiotics. The assay is classed as cell-based, Lactobacillus jensenii. Further details: key: ++: if growth and fermentation was equal to or greater than the positive control; +: if growth and fermentation was less than the positive control; +: if weak or no growth or fermentation; +^2: Bacteria demonstrated growth but no fermentation on the prebiotic. To be noted: 2% w/v prebiotic in API 50 CHL media. The protocol:
Most of the prebiotic compounds were initially tested in a high throughput assay screening process, described further in the Test Methods section herein, but three prebiotics (as noted in Table 3) were tested using a plate assay screening process as described in the Test Methods section herein. The prebiotics were tested against the commensal bacterial species of Lactobacillus crispatus, Lactobacillus gasseri, and Lactobacillus jensenii and against the pathogenic bacterial species of Streptococcus anginosus and Enterococcus faecalis as shown in Table 2. The bacterial species were taken from different sources, listed as culture collection, bladder, and vagina.
The results of the assay plate screening of the prebiotic compounds of Table 1 against the bacterial species of Table 2 is documented in Table 3 with the results being described by the following legend: • ++ if growth and fermentation was equal to or greater than the positive control • + if growth and fermentation was less than the positive control • […] if weak or no growth or fermentation • NT if not tested Some codes were not tested based on the use or non-use by the bacteria, as a way to efficiently move through the assay plate screening to the competition assay, described below.
• 1. Create a 2% w/v stock of prebiotic or positive control (glucose/dextrose) to be tested in API 50 CHL media (Biomerieux, Marcy-I'Étoile, France). API 50 CHL media contains minimal amounts of carbon for growth, and a bromocresol purple as a pH indicator of fermentation. Filter sterilize media with a […]. Store at 4-6° C. until use. • 2. Add 180 μL of media containing the prebiotic to a sterile, flat bottom 96-well microtiter plate (Corning, Corning, NY). • 3. From a freezer stock subculture the bacteria twice into De Man, Rogosa and Sharpe (MRS) broth (BD Difco, Becton Dickinson, Franklin Lakes, NJ), 37° C., stationary, anaerobic, overnight. • 4. From the last subculture, plate onto an MRS agar plate (Teknova, Hollister, CA) and grow 37° C., stationary, anaerobic, overnight. • 5. Create a bacterial suspension by using a sterile tipped swab to transfer colonies of bacteria into a PBS suspension blank to a 0.5 MacFarland (S. anginosus or E. faecalis) or a 1 MacFarland (Lactobacillus species) from the MRS agar plate. • 6. Enumerate the starting culture. • 7. Inoculate the media alone and media containing the prebiotic or positive control with 20 μL of the bacterial suspension. • 8. Place the plate into a spectrophotometer (Molecular Devices, San Jose, CA) and read the plate every 20 minutes for 24-48 hours. Read wavelengths (OD 430, OD 590, and OD 660). A color change to yellow caused by a drop in pH will be read by an increase in the OD430 value and a decrease in the OD590 value and is indicative of bacterial fermentation. An increase in OD660 values is indicative of an increase in turbidity and bacterial growth.

Regarding `OC[C@H]1O[C@H](OC[C@H]2OC(O)(CO)[C@@H](O)[C@@H]2O)[C@H](O)[C@@H](O)[C@@H]1O` (some centres unmarked) [Palatinose (isomaltulose), isomaltulose], the “overall outcome of the screening of Table 3, in words” value in assay [1] was “growing at least some of the commensal bacterial species and either having less growth than the positive control or almost no growth of the pathogenic bacterial species”. For the same molecule, in the assay with L. crispatus (L. crispatus KC18-1173-1, Bladder), the “growth and fermentation vs positive control, Lc-3” value is listed as “++”. Further, the “growth and fermentation vs positive control, Lc-4” value with L. crispatus is “++”. Moreover, the “growth and fermentation vs positive control, Lj-1” value in the assay on L. jensenii (L. jensenii KC17-4297-18, Bladder) is given as “+”.
With `CO[C@H]1O[C@H](CO)[C@@H](O)[C@H](O)[C@H]1O` [Alpha-Methyl-D-Glucoside], the “overall outcome of the screening of Table 3, in words” value in assay [1] was “growing at least some of the commensal bacterial species and either having less growth than the positive control or almost no growth of the pathogenic bacterial species”. Further, the “growth and fermentation vs positive control, Lc-2” value with L. crispatus (L. crispatus KC16-7134-3C, Bladder) is reported as “+”. In addition, the “growth and fermentation vs positive control, Lc-4” value in the assay on L. crispatus was “+”. The “growth and fermentation vs positive control, Lj-2” value in the assay on L. jensenii (L. jensenii KC17-4347-1, Bladder) is listed as “+”.
